The text below walks through data of US20070244102A1, “Combination of Dermaciclane and Opoids as Analgesics” (priority 2004, published 2007).

“Also recorded” adds a separate entry of the source. Where a name gives a salt, the structure may show the parent alone.

One assay concerns mice. In words: hot plate test in mice (influence on morphine analgesia). As to conditions: for influence on the analgesic effect of morphine (in words): 30 mg/kg ip. with morphine HCl 1 mg/kg sc.; for analgesia when given alone (in words): alone: morphine HCl 1 mg/kg sc., deramciclane 30 mg/kg ip., buspiron HCl 30 mg/kg ip. It counts as in vivo. As for the experimental part:
A modified of method of Eddy et al. (Eddy, N. B., Leimback, D., Synthetic Analgesics II. Dithienylbutenyl and Dithienylbutylamines. J. Pharmacol. Exp. Ther. 107: p. 385-393, 1953) was used. Male NMRI nice (20-25 g bodyweight) were dropped on a hot plate (56±0.5° C.) and the latency time elapsed until licking the forepaws was measured. The reaction time was tested twice before treatment. […] Mice were treated either with saline or with morphine HCl 1 mg/kg subcutaneously and at the same time either with vehicle or with deramciclane or buspirone, HCl 30 mg/kg intraperitoneally, respectively. After the treatment (15, 30, 45 and 60 min.) the reaction time was measured again. Animals were regarded as positive if they produced a 2.5-fold reaction time increase at least twice compared to their first control values. Statistical analysis was performed using the chi-square method.
In general terms: Thermal pain tests record how soon the animal reacts.

For assay [1] the following is noted: in the above mentioned doses (0.7-30 mg/kg); cited from earlier work.
The conditions of assay [2]: 10 and 30 mg/kg after oral treatment; cited from earlier work.
For assay [3] the following is noted: 1 and 10 mg/kg after oral administration; cited from earlier work.
For assay [4] the following is noted: single 0.7 mg/kg oral treatment; cited from earlier work.
The conditions of assay [5]: single oral dose of 3 mg/kg; cited from earlier work.
[6] abbreviates: Saline sc. + Buspiron HCl 30 mg/kg ip.
[7] abbreviates: Morphine HCl 1 mg/kg sc. + 0.4% methyl cellulose ip.
Where [8] appears, read: Morphine HCl 1 mg/kg sc. + Saline ip.

For `O=C1CC2(CCCC2)CC(=O)N1CCCCN1CCN(c2ncccn2)CC1` [Buspiron HCl, buspirone, HCl], in the assay on mice, the “influence on the analgesic effect of morphine (in words)” value is “did not influence the analgesic effect of morphine”. Besides, in the assay with mice (setting [6]), the Effect % is recorded as 0% and the Positive/treated animals is recorded as 0/10. Moreover, the “analgesia when given alone (in words)” value in the assay with mice (listed as buspiron HCl, HCl) is reported as “Neither morphine HCl 1 mg/kg sc. nor deramciclane 30 mg/kg ip. nor buspiron HCl 30 mg/kg ip. alone produced analgesia”. Also, the “analgesia when given alone (in words)” value in the assay with mice (listed as buspiron, HCl) was “neither deramciclane nor buspiron possess analgesic effect in itself”.
Take `CN1CC[C@]23c4c5ccc(O)c4O[C@H]2[C@@H](O)C=C[C@H]3[C@H]1C5.Cl` [Morphine HCl, morphine HCl]: in the assay on mice (setting [7]), the Effect % stood at 0% and the Positive/treated animals is reported as 0/10. Also, in the assay with mice (setting [8]), the Effect % came to 0% and the Positive/treated animals was 0/10. In addition, in the assay on mice, the “analgesia when given alone (in words)” value was “Neither morphine HCl 1 mg/kg sc. nor deramciclane 30 mg/kg ip. nor buspiron HCl 30 mg/kg ip. alone produced analgesia”.
In the case of “(1R,2S,4R)-(−)-2-[N,N-(dimethylaminoethoxy)]-2-phenyl-1,7,7-trimethylbicyclo[2.2.1]heptane [Deramciclane]”, the analgesic activity entry in assay [1] is “did not possess analgesic activity”. For the same compound, in assay [2], the “activity in marble burying model” value is given as “active”. Moreover, the “activity in Vogel punished drinking test” value in assay [3] was “active”. In the assay with mice, the “influence on the analgesic effect of morphine (in words)” value is reported as “potentiation of the analgesic effect of morphine” and the “analgesia when given alone (in words)” value is recorded as “Neither morphine HCl 1 mg/kg sc. nor deramciclane 30 mg/kg ip. nor buspiron HCl 30 mg/kg ip. alone produced analgesia; also recorded: neither deramciclane nor buspiron possess analgesic effect in itself”. Moreover, in the assay on mice (Saline sc. + Deramciclane 30 mg/kg ip.), the Effect % came out at 0%. Besides, the Positive/treated animals in the assay on mice (Saline sc. + Deramciclane 30 mg/kg ip., positive = 2.5-fold reaction time increase at least twice, 15-60 min) is on record as 0/10. Besides, the “time spent with social interactions” value in assay [4] was “increased the time spent with social interactions”. Besides, in assay [5], the “activity in light-dark model” value is given as “active”.
